Where two headings read alike, the source gives them in different places.
What was measured:
BC-3 PEL cell line [1] = test: CellTiter-Glo cell viability assay, BC-3; details: read-out: BC-3 LC50 (μM)
Experimental: Media was supplemented with 20% FBS 3 hours post-peptide treatment.
(§1) Cytotoxicity of these hits was assayed using CellTiter Glo viability assay.

in vitro = details: human
Experimental: as §1

full length NEMO = test: Fluorescence polarization direct binding assay, specificity over NEMO; details: FITC-labeled peptide
Description: (§2) Data plotted represent mean±s.e.m of three replicate experiments. TR-FRET signal was normalized to DMSO control and expressed as percent inhibition. […] Data shown represent mean±s.d. of two independent experiments performed in triplicate. Data was normalized to c. (FIG. 3C) The conformation of the coiled coil mimics was investigated by circular dichroism spectroscopy in aqueous buffer. The reported values represent mean±s.e.m of two independent experiments. […] The circular dichroism spectra were collected at regular intervals between 5-95° C. Data shown represent one experiment where scans were recorded five times over the temperature range. […] Peptide degradation was probed over 24 h by HPLC. […] Cells were visualized by fluorescence microscopy after 1 hour incubation. […] Hoechst stain was used to detect the nuclei. Representative live confocal images from at least three replicate experiments are shown.
The polarization experiments were performed using a DTX 880 Multimode Detector (Beckman) at 25° C. with excitation and emission wavelengths of 485 and 525 nm, respectively. Each polarization experiment was performed in a 96-well round bottom plate (Greiner) in assay buffer: Tris glycerol pluronic acid. The binding affinity (KD) values reported for each peptide are from experiments performed in triplicate. […]

BC-1 cells = test: Live cell confocal microscopy cellular uptake; type: in vitro ADME
Experimental: Live Cell Confocal Microscopy and Analysis: BC1 PEL cells in the exponential phase were resuspended in RPMI 1640 media supplemented with 50 μg/ml gentamicin in the absence of serum and treated with a final concentration of 0.125% DMSO or 500 nM FITC-labeled peptide at 37° C., cold or in the presence of 10 mM sodium azide. Cells were then added to 35 mm glass bottom MatTek poly-lysine coated plates (p356c-0-10C) and immunofluorescence images were captured using LSM880 confocal miscroscope with Airyscan resolution detector, spectral detector and incubation. Images were processed using Fiji software (FIG. 14).
Inhibition of the vFLIP-NEMO complex formation in KSHV-infected PEL cells requires the inhibitor to be cell permeable. […] In order to probe cellular entry mechanism, we performed cellular uptake experiments at 4° C. as well as with sodium azide poisoning to reduce ATP-mediated active transport mechanisms without affecting overall cellular viablity (Patgiri et al., Nat. Chem. Biol. 7:585-7 (2011); which is hereby incorporated by reference in its entirety).

BC-2 PEL cell line = details: BC-2, KSHV+/EBV+; read-out: PU-H71 LC50; cited from earlier work
BCBL-1 PEL cell line = details: BCBL-1, KSHV+; read-out: PU-H71 LC50; cited from earlier work
BC-1 PEL cell line = details: BC-1, KSHV+/EBV+; read-out: PU-H71 LC50; cited from earlier work
[2] = system: Namalwa Burkitt lymphoma cell line; test: CellTiter-Glo cell viability assay, Namalwa; type: cell-based
[3] = system: PEL cell lines (BC-1, BC-3, BCBL-1); test: CellTiter-Glo cytotoxicity in panel of PEL cell lines; type: cell-based; details: FIG. 5A
[4] = molecular target: T1, vFLIP/NEMO complex in vFLIP-FLAG doxycycline-inducible Namalwa cell line (Human herpesvirus 8 type P, UniProt F5HEZ4); test: Co-immunoprecipitation of vFLIP-FLAG and NEMO; type: cell-based; details: 24 hrs treatment, increasing concentrations
T1 construct: expressed in transfected cells; host or cells: Namalwa Burkitt lymphoma cells, lentivirally transduced (pLVX-TetOne-puro), doxycycline-induced
Experimental: Co-Immunoprecipiation: FLAG-tagged WT vFLIP or a vFLIP NF-κB dead mutant (vFLIP^AAA(58-60)) inducible Namalwa Burkitt lymphoma cell lines were used. Expression of WT vFLIP or mutant vFLIP was attained by treating cells with 1 μg/mL doxcycline for 24 hrs. […] 4 hours post-treatment, media was supplemented with 20% FBS and treatment continued for another 24 hrs. Next day, uninduced Namalwa WT vFLIP cell line, treated Namalwa WT vFLIP expressing cell lines as well as Namalwa expressing mutant vFLIP and parental Namalwa cell lines were harvested, washed in PBS and lysed on ice for 30 minutes using CelLytic M lysis reagent (Sigma, cat. C2978) supplemented with protease inhibitor cocktail (calbiochem, cat 539134). Cells were spun down and some of supernatants was saved for input and the rest was immunoprecipitated overnight using anti-FLAG M2beads (Sigma, cat. A2220) that were pre-equilibrated with the same buffer. […]
Immunoblotting: For co-immunoprecipitation study, eluted protein lysates were separated using pre-casted 10% sodium dodecyl sulfate-polyacrylamide gel electrophoresis SDS-PAGE gel (Bio-rad). […] Secondary anti-HRP rabbit antibody was used at 1:5000 dilution (GE healthcare) and chemiluminescent signal was detected using enhanced chemiluminescence (ECL) substrate (thermo Fisher Scientific) and autoradiography. […]

[5] = system: Namalwa Burkitt lymphoma cell line; details: EBV+, read-out: PU-H71 LC50; cited from earlier work
BC-3 PEL cell line [6] = details: BC-3, KSHV+; read-out: PU-H71 LC50; cited from earlier work
[7] = system: BC-3-luc PEL cells xenograft; test: PEL in vivo xenograft mouse model; parameters: species or system NOD/SCID mice; details: 20 mg/kg intraperitoneally, 9 consecutive days
Experimental: PEL in Vivo Xenograft Mouse Model Study: […] BC3NFRen-luc #3 were injected intraperitoneally into 4-6 week-old male NOD/SCID mice. […] The tumor burden or bioluminescence (photons/s/cm^2/steradian) was monitored by live imaging and weighing, with the sacrificial endpoint determined to be a net gain or loss of 10% body weight over a week.
We next tested its antitumor activity in vivo. We injected 10×10^6 BC-3-luc PEL cells into the peritoneal cavity of NOD-SCID mice and monitored tumor burden by bioluminescence imaging.

[8] = Circular dichroism thermal denaturation; type: physicochemical; details: CD spectra between 5-95° C.
Description: as §2
Circular Dichroism Spectroscopy: CD spectra were recorded on a Jasco J-1500 Circular Dichroism Spectrophotometer equipped with a temperature controller using 1 mm length cells and a scan speed of 4 nm/min at 298K. The spectra were averaged over 4 scans with the background subtracted to the analogous experimental conditions. […] The concentrations of each peptide were determined by the UV absorption at 280 nm.

Serum stability assay = type: in vitro ADME; details: 25% fetal bovine serum in RPMI, 60 μM peptide, read-out: initial peptide remaining intact
Experimental: Time points of 30 minutes, 1 hr, 2 hr, 8 hr, and 24 hrs were analyzed in triplicate. Each reaction was started upon addition of FBS to 60 μM peptide. Reactions were quenched at time points with addition of 100% EtOH, chilled on ice for 10 minutes, and pelleted at 12,000 RPM. Supernatant was injected onto an Agilent analytical HPLC equipped with an XTerra RP18 3.5 μm 2.1×150 mm column (Part No. 186000410) and visualized at 220 nm. Integration of peak areas was used to determine percent degradation of peptides. Mass of cleaved products were determined using Matrix assisted laser desorption ion time of flight (MALDI-TOF) spectroscopy.

T1 sequence (F5HEZ4 whole entry, one chain of several): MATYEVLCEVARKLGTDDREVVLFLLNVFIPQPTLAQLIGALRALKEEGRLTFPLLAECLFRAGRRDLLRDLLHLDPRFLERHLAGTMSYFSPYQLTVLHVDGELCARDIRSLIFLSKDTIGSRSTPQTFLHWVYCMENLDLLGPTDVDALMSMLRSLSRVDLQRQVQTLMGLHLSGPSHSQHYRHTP

Row | SMILES | CC50 (BC-3 PEL cell line [1]) | CC50 (in vitro) | further results
1 | CN(Cc1ccc2cccnc2c1)S(=O)(=O)c1cccs1 [Compound 4] | > 100 µM | > 100 µM | 
2 | CC[C@H](C)[C@H](NC(=O)[C@H](CC(C)C)NC(=O)[C@H](CCC(=O)O)NC(=O)[C@H](CC(=O)O)NC(=O)[C@@H](NC(=O)[C@H](CCCCn1cc(COCc2cn(CCCC[C@H](NC(=O)[C@H](CC(C)C)NC(=O)[C@H](CCCNC(=N)N)NC(=O)[C@H](CCCNC(=N)N)NC(=O)[C@@H](NC(=O)[C@H](CCC(=O)NC3CCCCC3)NC(=O)[C@H](CCC(=O)O)NC(=O)[C@H](Cc3c[nH]c4ccccc34)NC(=O)[C@H](CC(C)C)NC(=O)[C@H](CCC(N)=O)NC(=O)[C@H](CCCNC(=N)N)NC(=O)[C@@H](NC(=O)[C@H](Cc3c[nH]c4ccccc34)NC(=O)[C@H](CCC(=O)O)NC(=O)CCNC(=S)Nc3ccc4c(c3)C(=O)OC43c4ccc(O)cc4Oc4cc(O)ccc43)[C@@H](C)CC)[C@@H](C)CC)C(N)=O)nn2)nn1)NC(=O)[C@H](CCCNC(=N)N)NC(=O)[C@H](Cc1ccccc1)NC(=O)[C@H](CC(C)C)NC(=O)[C@H](CCCNC(=N)N)NC(=O)[C@H](Cc1c[nH]cn1)NC(=O)[C@@H](NC(=O)[C@H](CCC(=O)O)NC(C)=O)[C@@H](C)CC)[C@@H](C)CC)C(=O)N[C@@H](CCCNC(=N)N)C(N)=O [FITC-CHD3^NEMO] |  |  | binding to wild-type NEMO coiled coil (full length NEMO): failed to bind wild-type NEMO coiled coil; time to enter BC-1 cells (BC-1 cells; 500 nM FITC-labeled peptide, 37° C.): ≤ 30 min
3 | CCOc1ccc2nc3cc(N)ccc3c(N)c2c1 [Compound 2] | 12.2 µM | 7.7 µM | 
4 | CCCCC(CC)CNC(=N)NC(=N)NCCCCCCNC(=N)NC(=N)NCC(CC)CCCC (stereo not drawn) [Compound 9] | 3.9 µM | 3.8 µM | 
5 | CC(=O)N1CCc2cc(C(=O)C(C)Oc3ccc(C#N)cc3Cl)ccc21 (stereo not drawn) [Compound 6] | 35.9 µM | 69.7 µM | 
6 | c1ccc2c(c1)Nc1ccccc1S2 [Compound 3] | 62.7 µM | 63 µM | 
7 | Cc1cc(CNC(=O)NC2CCCC2)cc(C)c1O [Compound 5] | > 100 µM | > 100 µM | 
8 | O=C(C1CCCN1c1ncccn1)N1CCc2c(Cl)cccc2C1 (stereo not drawn) [Compound 7] | 39.9 µM | 31.6 µM | 
9 | CC(C)NCCCn1c(Sc2cc3c(cc2I)OCO3)nc2c(N)ncnc21 [PU-H71] |  |  | CC50 (BC-2 PEL cell line): 0.0271 µM; CC50 (BCBL-1 PEL cell line): 0.217 µM; CC50 (BC-1 PEL cell line): 0.0369 µM; sensitivity of vFLIP-negative Namalwa cells [2]: showed sensitivity; sensitivity of PEL cell lines [3]: showed sensitivity; disruption of vFLIP/NEMO complex (NEMO pulled down by FLAG beads) [4]: disrupted the complex and destabilized both vFLIP and NEMO; CC50 [5]: 0.337 µM; CC50 (BC-3 PEL cell line [6]): 0.0634 µM
10 | CC[C@H](C)[C@H](NC(=O)[C@H](CC(C)C)NC(=O)[C@H](CCC(=O)O)NC(=O)[C@H](CC(=O)O)NC(=O)[C@@H](NC(=O)[C@H](CCCCn1cc(COCc2cn(CCCC[C@H](NC(=O)[C@H](CC(C)C)NC(=O)[C@H](CCCNC(=N)N)NC(=O)[C@H](CCCNC(=N)N)NC(=O)[C@@H](NC(=O)[C@H](CCC(=O)NC3CCCCC3)NC(=O)[C@H](CCC(=O)O)NC(=O)[C@H](Cc3c[nH]c4ccccc34)NC(=O)[C@H](CC(C)C)NC(=O)[C@H](CCC(N)=O)NC(=O)[C@H](CCCNC(=N)N)NC(=O)[C@@H](NC(=O)[C@H](Cc3c[nH]c4ccccc34)NC(=O)[C@H](CCC(=O)O)NC(C)=O)[C@@H](C)CC)[C@@H](C)CC)C(N)=O)nn2)nn1)NC(=O)[C@H](CCCNC(=N)N)NC(=O)[C@H](Cc1ccccc1)NC(=O)[C@H](CC(C)C)NC(=O)[C@H](CCCNC(=N)N)NC(=O)[C@H](Cc1c[nH]cn1)NC(=O)[C@@H](NC(=O)[C@H](CCC(=O)O)NC(C)=O)[C@@H](C)CC)[C@@H](C)CC)C(=O)N[C@@H](CCCNC(=N)N)C(N)=O [CHD3^NEMO] |  |  | observed toxicity [7]: without any observed toxicity; conformational stability (helix percentage vs temperature) [8]: retain a significant proportion of helix percentage at high temperatures; remaining at 24 h, 60 μM (Serum stability assay): ~80%; cellular uptake at cold temperatures and with sodium azide (BC-1 cells; 4° C., 10 mM sodium azide): reduction in cellular uptake
11 | Cc1cccc(-c2cccc(CNC(=O)NCCS(C)(=O)=O)c2)c1 [Compound 8] | > 100 µM | > 100 µM | 

Reference: patent publication US11891422B2 (priority 2018, dated 2024)
